Assay results as given in patent publication US12673955B2, “Crystal form of p-toluenesulfonate salt of diazabicyclic compound and preparation method therefor” (CRYSTAL PHARMATECH CO., LTD., priority 2020, dated 2026).

How the values were obtained:
Assay type in all cases: physicochemical
[1] = Adhesiveness propensity study (material sticking to the punch); conditions: 8 mm round tooling, 10 kN, 30 s
Description: Approximately 30 mg of tosylate Form A and the solid in the prior art were weighed and then added into the dies of 8 mm round tooling, compressed at 10 kN pressure and held for 30 s. The punch was weighed and amount of material sticking to the punch was calculated. The compression was repeated once and the cumulative amount, maximum amount and average amount of material sticking to the punch during the compression were recorded.

[2] = Compressibility of crystalline form (manual tablet press, 350 MPa)
Description: A manual tablet press was used for tabletting. Appropriate amount of tosylate Form A and solid in the prior art were compressed by circle punches under 350 MPa pressure to form a tablet. Hardness (H) of the tablet was determined to be 18.36 N by a tablet hardness tester. Diameter (D) and thickness (L) of the tablet were determined to be 6 mm and 1.02 mm by a vernier caliper, respectively. The tensile strength of the tablets was calculated to be 1.9 MPa through the equation of T=2H/πDL.

[3] = Hygroscopicity study by dynamic vapor sorption (DVS)
Description: The dynamic vapor sorption diagrams of the present disclosure were collected on Intrinsic-type and Intrinsic Plus-type dynamic vapor sorption instruments of SMS company. The parameters of the dynamic vapor sorption test of the present disclosure were as follows: • Temperature: 25° C. • Protection gas and flow rate: N2, 200 m L/min • dm/dt: 0.002%/min • Minimum dm/dt equilibration time: 10 min • Maximum Equilibration Time: 180 min • Relative humidity range: 0% RH-95% RH-0% RH • Relative humidity gradient: 10% (0% RH-90% RH-0% RH), 5% (90% RH-95% RH and 95% RH-90% RH).
Dynamic vapor sorption (DVS) was applied to test hygroscopicity of tosylate Form A solid and solid in the prior art with about 10 mg of samples. XRPD patterns were collected.
Non-hygroscopic or almost non hygroscopic: increase in mass is less than 0.2 percent.

[4] = Solubility of crystalline form (saturated solutions measured by HPLC); conditions: for solubility at 1 h / solubility at 2 h / solubility at 4 h / solubility at 24 h: thermodynamic from solid
Description: Tosylate Form A and solid in the prior art were suspended into SGF, FaSSIF, FeSSIF and water to get saturated solutions. After equilibrated for 1 hour, 2 hours, 4 hours and 24 hours, concentrations of the saturated solutions were measured by HPLC.

[5] = Intrinsic dissolution of crystalline form; conditions: pH 6.8 phosphate buffer, 900 mL, 37° C., paddle, tablet surface 0.5 cm^2
Description: The intrinsic dissolution rate data of the present disclosure were collected on an Agilent 708DS-type dissolution apparatus of the Agilent company. The intrinsic dissolution test conditions were as follows.
Approximately 100 mg of tosylate Form A and the solid in the prior art were added into the cavity of the die, and then compressed at 5 KN and held for 1 minute to obtain a tablet having a surface area of 0.5 cm^2.

[6] = Stability study of tosylate Form A (XRPD and chemical impurity after storage)
Description: Approximately 10 mg of tosylate Form A were stored under different conditions of 25° C./60% RH and 40° C./75% RH. XRPD and chemical impurity were checked at 1 week, 2 weeks, 4 weeks and 8 weeks.
Based on the above results, tosylate Form A kept stable for at least 8 weeks.

[7] = PSD test (laser particle size analyzer, wet method)
Description: The particle size distribution results of the present disclosure were collected on S3500-type laser particle size analyzer of the Microtrac company. The Microtrac S3500 was equipped with an SDC (Sample Delivery Controller) sampling system. The wet method was used in this test, using Isopar G (containing 0.2% lecithin) as the test dispersion medium. The process parameters of the laser particle size analyzer were as follows.
Approximately 10-30 mg of tosylate Form A solid was added into 10 mL of Isopar G (containing 0.2% lecithin). The mixture was mixed thoroughly and transferred into the SDC. The experiment was started when the obscuration is in appropriate range. The particle size distribution (PSD) was tested before and after 30 seconds of ultrasound.

[8] = Crystal habit by polarized light microscopy
Excerpt: The polarized light microscope photos of the present disclosure were taken at room temperature with a Zeiss microscope Axio Scope.A1 equipped with an Axiocam 305 color camera and 5×, 10×, 20× and 50× objective lenses.

[9] = 25° C./60% RH and 40° C./75% RH, up to 8 weeks
[10] = Isopar G containing 0.2% lecithin

## Cn1cc(Nc2nccc(N3C[C@H]4CC[C@@H](C3)N4C(=O)[C@@H]3CC3(F)F)n2)cn1 [tosylate Form A, ((1S)-2,2-difluorocyclo-propyl) ((1R,5S)-3-(2-((1-methyl-1H-pyrazol-4-yl)amino)pyrimidin-4-yl)-3,8-diazabicyclo[3.2.1]octan-8-yl)methanone]
[1]
  adhesiveness compared with the prior art solid: superior to the prior art solid
[2]; 350 MPa pressure
  compressibility: good compressibility
[2]; calculated by T=2H/πDL, tablet compressed under 350 MPa
  tensile strength of the tablets: 1.9 MPa
[2]; tablet compressed under 350 MPa, diameter 6 mm, thickness 1.02 mm
  Hardness (H) of the tablet: 18.36 N
[3]; 0% RH-95% RH-0% RH, 25° C.
  form change after DVS test (XRPD): no obvious form change
[3]; Chinese Pharmacopoeia 2015 definition, from DVS weight gain at 80% RH
  hygroscopicity class: slightly hygroscopic
[3]; at 80% RH, 25° C.
  weight gain (DVS): 0.35%
[3]; versus solid in the prior art
  hygroscopicity compared with the prior art: relatively lower hygroscopicity
[4]; SGF, FaSSIF, FeSSIF and water
  solubility compared with solid in the prior art: higher than that of solid in the prior art
[4]; simulated gastric fluid, SGF
  solubility at 1 h: 5540 µg/mL
  solubility at 2 h: 5990 µg/mL
  solubility at 4 h: 5080 µg/mL
  solubility at 24 h: 5690 µg/mL
[4]; FaSSIF
  solubility at 1 h: 7120 µg/mL
  solubility at 2 h: 7310 µg/mL
  solubility at 4 h: 7300 µg/mL
  solubility at 24 h: 7540 µg/mL
[4]; FeSSIF
  solubility at 1 h: 6770 µg/mL
  solubility at 2 h: 7030 µg/mL
  solubility at 4 h: 7340 µg/mL
  solubility at 24 h: 7780 µg/mL
[4]; water, H2O
  solubility at 1 h: 5260 µg/mL
  solubility at 2 h: 5340 µg/mL
  solubility at 4 h: 5240 µg/mL
  solubility at 24 h: 5560 µg/mL
[5]
  intrinsic dissolution rate compared with the solid in the prior art: higher dissolution rate than the solid in the prior art
[6]; 25° C./60% RH and 40° C./75% RH
  time kept stable: at least 8 weeks
[6]; [9]
  Crystalline state after storage: doesn't change
  chemical purity after storage: above 99%
[6]; 25° C./60% RH, 1 week
  Puriy: 99.92%
[6]; 25° C./60% RH, 2 weeks
  Puriy: 100.0%
[6]; 25° C./60% RH, 4 weeks
  Puriy: 99.89%
[6]; 25° C./60% RH, 8 weeks
  Puriy: 99.92%
[6]; 40° C./75% RH, 1 week
  Puriy: 99.90%
[6]; 40° C./75% RH, 2 weeks
  Puriy: 99.91%
[6]; 40° C./75% RH, 4 weeks
  Puriy: 99.90%
[6]; 40° C./75% RH, 8 weeks
  Puriy: 99.91%
[7]; 30 seconds of ultrasound
  change of particle size distribution after sonication: no obvious change or agglomeration
[7]; [10]
  mean particle size (MV): 400 μm
  particle size distribution shape: unimodal distribution
[8]; inferred from crystal habit
  flowability: good flowability
[8]; polarized light microscopy
  crystal habit: rod-like particles
